Target: Hepatocyte growth factor receptor (Homo sapiens, UniProt P08581)
Assay: Inhibition Assay: A study on inhibition of protein kinases activity at in vitro biochemical levelMaterial and method: kinases such as c-Met, VEGFR-2, Axl and RET, obtained from Invitrogen; HTRF KinEASE; TK kit (Cisbio Company); 384-well plate (Greiner Company); ATP (Sigma Company), MgCl2 (Sigma Company); PHERAstar FS multifunctional plate reader (BMG Company); conventional centrifuge (StaiteXiangyi Company); incubator (Binder Company). […] Meanwhile, 4 μL 1.33× enzymatic buffer is added as the negative control. 2 μL compound working solution is added into each well, and 2 μL 8% DMSO in water is added as zero compound level control (i.e., positive control). At 25° C. (or 30 C), incubate for 5-10 min; add 2 μL substrate working solution into each well to initiate the enzymatic reaction. Allow to react while shaking at 25° C. (or 30° C.) for 15-60 min.

Chain of Hepatocyte growth factor receptor (P08581 whole entry): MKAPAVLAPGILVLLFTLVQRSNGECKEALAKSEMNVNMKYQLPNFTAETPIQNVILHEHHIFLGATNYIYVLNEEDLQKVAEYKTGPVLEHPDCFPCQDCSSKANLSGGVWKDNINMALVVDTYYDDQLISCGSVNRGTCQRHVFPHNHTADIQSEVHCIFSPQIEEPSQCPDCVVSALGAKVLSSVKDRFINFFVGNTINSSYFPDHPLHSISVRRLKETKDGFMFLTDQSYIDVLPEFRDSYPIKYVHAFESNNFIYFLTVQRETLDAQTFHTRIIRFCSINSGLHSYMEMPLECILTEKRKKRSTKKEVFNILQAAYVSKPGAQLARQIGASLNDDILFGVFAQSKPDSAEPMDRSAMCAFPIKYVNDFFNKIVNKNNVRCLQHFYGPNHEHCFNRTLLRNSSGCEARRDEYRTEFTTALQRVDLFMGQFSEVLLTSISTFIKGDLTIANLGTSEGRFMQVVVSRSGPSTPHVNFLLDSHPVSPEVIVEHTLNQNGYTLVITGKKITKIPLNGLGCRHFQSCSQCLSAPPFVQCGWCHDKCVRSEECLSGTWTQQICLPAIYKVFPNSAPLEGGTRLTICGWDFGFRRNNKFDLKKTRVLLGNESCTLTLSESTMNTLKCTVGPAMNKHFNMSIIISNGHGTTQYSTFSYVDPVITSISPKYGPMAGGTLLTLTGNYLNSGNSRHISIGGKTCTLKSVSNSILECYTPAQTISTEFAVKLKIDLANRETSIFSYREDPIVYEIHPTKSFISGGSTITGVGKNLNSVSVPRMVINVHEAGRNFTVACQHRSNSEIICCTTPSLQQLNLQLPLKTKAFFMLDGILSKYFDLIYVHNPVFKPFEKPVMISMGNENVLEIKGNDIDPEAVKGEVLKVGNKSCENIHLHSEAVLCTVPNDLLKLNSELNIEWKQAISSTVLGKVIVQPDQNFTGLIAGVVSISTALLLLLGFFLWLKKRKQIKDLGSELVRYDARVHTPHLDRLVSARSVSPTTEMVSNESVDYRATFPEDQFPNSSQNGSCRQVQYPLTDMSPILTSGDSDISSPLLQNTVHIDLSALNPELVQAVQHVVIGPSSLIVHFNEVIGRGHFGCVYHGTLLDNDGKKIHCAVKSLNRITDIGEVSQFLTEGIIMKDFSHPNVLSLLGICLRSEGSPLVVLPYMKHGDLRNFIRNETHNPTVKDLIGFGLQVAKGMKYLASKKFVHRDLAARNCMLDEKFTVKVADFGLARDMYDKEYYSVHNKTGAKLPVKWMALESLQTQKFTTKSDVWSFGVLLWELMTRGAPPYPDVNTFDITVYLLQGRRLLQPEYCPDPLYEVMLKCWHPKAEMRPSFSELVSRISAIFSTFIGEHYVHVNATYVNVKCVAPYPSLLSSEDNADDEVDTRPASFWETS

- IC50: 0.143 µM
SMILES: COc1cc2nccc(Oc3ccc(Nc4nccc5[nH]cc(-c6ccc(F)cc6)c(=O)c45)cc3F)c2cc1OC

— ChEMBL document CHEMBL5726941, “Naphthyridine compounds, medical combinations and use thereof” (2018)
